# Measured values reported in PubChem BioAssay (NCI).
#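 Abbreviation: GI50, concentration required for 50% inhibition of growth. TGI: concentration producing complete growth inhibition.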
# Assays:
# Assay in all cases: growth of human tumour cells (NCI), 384-well format
# [1] = system: T-47D breast
# [2] = system: SF-539 CNS
# [3] = system: NCI-H226 lung
# [4] = system: RXF 393 renal
# [5] = system: HOP-92 NSCLC
# [6] = system: BT-549 breast
# [7] = system: HOP-62 NSCLC
# [8] = system: SK-MEL-2 melanoma
# [9] = system: CAKI-1 renal
# [10] = system: NCI-H460 NSCLC
# [11] = system: ACHN renal
# [12] = system: UO-31 renal
# [13] = system: KM12 colon
smiles,measurement,setting,value
N#Cc1c(N)nc(N)nc1N[C@H](c1nc2c(F)ccc(Cl)c2c(=O)n1-c1cccnc1)C1CC1,GI50,[1],1020 nM
same,TGI,[1],5.99 µM
same,GI50,[2],5.96 µM
same,TGI,[2],44.5 µM
same,GI50,[3],15.6 µM
same,TGI,[3],> 57.7 µM
same,GI50,[4],200 nM
same,TGI,[4],936 nM
same,GI50,[5],677 nM
same,TGI,[5],14.3 µM
same,GI50,[6],711 nM
same,TGI,[6],12.9 µM
same,GI50,[7],17.9 µM
same,TGI,[7],> 65.3 µM
same,GI50,[8],17.3 µM
same,TGI,[8],39.3 µM
same,GI50,[9],2300 nM
same,TGI,[9],> 100 µM
same,GI50,[10],5.48 µM
same,TGI,[10],> 100 µM
same,GI50,[11],7.04 µM
same,TGI,[11],> 100 µM
same,GI50,[12],2640 nM
same,TGI,[12],8.87 µM
same,GI50,[13],17.8 µM
same,TGI,[13],52.3 µM
